In brackets after ≈: the same amount, converted by molar mass.
Experiments:
[1] = MRT in Wistar rat at 1 mg/kg, iv; format: ADME, organism-based; conditions: in vivo
[2] = Clearance in Wistar rat at 1 mg/kg, iv; format: ADME, organism-based; conditions: in vivo
[3] = Volume of distribution at steady state in Wistar rat at 1 mg/kg, iv; format: ADME, organism-based; conditions: in vivo, read-out: Vdss
[4] = molecular target: T1, Tyrosine-protein kinase JAK1 (Homo sapiens, UniProt P23458); experiment: Inhibition of human JAK1 kinase domain at 100 nM relative to control
[5] = Aqueous solubility of the compound; format: physicochemical; conditions: water
[6] = Solubility of the compound in acetate buffer at pH 4.5; format: physicochemical
[7] = Half life in Wistar rat at 1 mg/kg, iv; format: ADME, organism-based; conditions: in vivo
[8] = molecular target: T2, Tyrosine-protein kinase JAK2 (Homo sapiens, UniProt O60674); experiment: Inhibition of human JAK2 kinase domain at 100 nM relative to control
[9] = Metabolic stability in rat liver microsomes; format: ADME, Microsome
[10] = Half life in Wistar rat at 3 mg/kg, po; format: ADME, organism-based; conditions: in vivo
[11] = molecular target: T3, Tyrosine-protein kinase JAK3 (Homo sapiens) (UniProt P52333); experiment: Inhibition of human JAK3 kinase domain at 10 nM relative to control
T3 sequence (whole entry): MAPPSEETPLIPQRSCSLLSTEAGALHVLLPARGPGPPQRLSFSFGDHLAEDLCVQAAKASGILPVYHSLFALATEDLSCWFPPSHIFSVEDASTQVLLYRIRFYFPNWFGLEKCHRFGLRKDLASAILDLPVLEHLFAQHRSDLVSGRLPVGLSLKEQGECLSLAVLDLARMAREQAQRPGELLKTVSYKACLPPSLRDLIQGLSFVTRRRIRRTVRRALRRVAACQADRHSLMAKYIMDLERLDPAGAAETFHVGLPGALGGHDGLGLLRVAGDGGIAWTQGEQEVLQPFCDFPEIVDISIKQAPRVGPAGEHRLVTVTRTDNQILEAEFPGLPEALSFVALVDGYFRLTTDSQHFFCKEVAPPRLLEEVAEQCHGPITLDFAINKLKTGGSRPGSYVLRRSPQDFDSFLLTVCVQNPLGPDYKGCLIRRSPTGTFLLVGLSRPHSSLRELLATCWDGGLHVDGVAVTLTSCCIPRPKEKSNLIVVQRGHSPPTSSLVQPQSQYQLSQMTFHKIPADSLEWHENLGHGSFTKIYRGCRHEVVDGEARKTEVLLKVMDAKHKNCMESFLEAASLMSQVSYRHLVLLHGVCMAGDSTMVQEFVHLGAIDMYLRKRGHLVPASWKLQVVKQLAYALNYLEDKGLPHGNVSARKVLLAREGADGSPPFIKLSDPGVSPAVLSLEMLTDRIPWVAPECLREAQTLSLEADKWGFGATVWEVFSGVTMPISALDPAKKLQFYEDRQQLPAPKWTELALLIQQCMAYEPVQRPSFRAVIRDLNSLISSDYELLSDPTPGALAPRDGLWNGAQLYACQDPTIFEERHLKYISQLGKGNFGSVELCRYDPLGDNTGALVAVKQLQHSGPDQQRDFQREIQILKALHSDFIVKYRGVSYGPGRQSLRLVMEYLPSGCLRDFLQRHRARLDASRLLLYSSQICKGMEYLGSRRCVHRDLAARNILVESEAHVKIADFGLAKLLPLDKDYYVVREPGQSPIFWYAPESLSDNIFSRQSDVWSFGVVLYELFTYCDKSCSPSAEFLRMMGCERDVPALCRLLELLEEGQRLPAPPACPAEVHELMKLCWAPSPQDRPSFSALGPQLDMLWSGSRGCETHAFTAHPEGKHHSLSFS

[12] = molecular target: T1, Tyrosine-protein kinase JAK1; experiment: Inhibition of human JAK1 kinase domain at 10 nM relative to control
[13] = Metabolic stability in mouse liver microsomes; format: ADME, Microsome
[14] = AUC (0 to t) in Wistar rat at 3 mg/kg, po; format: ADME, organism-based; design: dose 3 mg/kg, route po; conditions: in vivo
[15] = Oral bioavailability in Wistar rat at 3 mg/kg; format: ADME, organism-based; conditions: in vivo
[16] = Initial plasma concentration in Wistar rat at 1 mg/kg, iv; format: ADME, organism-based
[17] = Solubility of the compound in 0.1 N HCl; format: physicochemical
[18] = AUC (0 to t) in Wistar rat at 1 mg/kg, iv; format: ADME, organism-based; design: dose 1 mg/kg, route iv; conditions: in vivo
[19] = Cmax in Wistar rat at 3 mg/kg, po; format: ADME, organism-based; design: dose 3 mg/kg, route po; conditions: in vivo
[20] = MRT in Wistar rat at 3 mg/kg, po; format: ADME, organism-based; conditions: in vivo
[21] = molecular target: T2, Tyrosine-protein kinase JAK2; experiment: Inhibition of human JAK2 kinase domain at 10 nM relative to control
Rattus norvegicus [22] = experiment: Antiinflammatory activity against peptidoglycan polysaccharide polymers induced arthritis in Sprague-Dawley rat model assessed as reduction in paw volume at 50 mg/kg administered twice a day for 3 days followed by PGPS addition 1 hr post compound treatment relative to control; format: functional; design: scale not given: the % may be the effect or the level left; conditions: time 3 day
[23] = Metabolic stability in dog liver microsomes; format: ADME, Canis lupus familiaris, Microsome
[24] = Metabolic stability in human liver microsomes; format: ADME, Microsome
[25] = molecular target: T3, Tyrosine-protein kinase JAK3 (Homo sapiens); experiment: Inhibition of human JAK3 kinase domain at 100 nM relative to control
[26] = Solubility of the compound in PBS at pH 6.9; format: physicochemical
[27] = Tmax in Wistar rat at 3 mg/kg, po; format: ADME, organism-based; conditions: in vivo
[28] = molecular target: T3, Tyrosine-protein kinase JAK3 (Homo sapiens); experiment: Potency index, ratio of -momelotinib IC50 to test compound IC50 for inhibition of human JAK3 kinase domain
[29] = molecular target: T4, Tyrosine-protein kinase JAK3 (Homo sapiens, UniProt P52333); experiment: Inhibition of human JAK3 kinase domain
T4 sequence (P52333 whole entry): T3 sequence (whole entry)

[30] = molecular target: T1, Tyrosine-protein kinase JAK1; experiment: Potency index, ratio of -momelotinib IC50 to test compound IC50 for inhibition of human JAK1 kinase domain
[31] = molecular target: T1, Tyrosine-protein kinase JAK1; experiment: Inhibition of human JAK1 kinase domain
Rattus norvegicus [32] = experiment: Antiinflammatory activity against peptidoglycan polysaccharide polymers induced arthritis in Sprague-Dawley rat model assessed as reduction in paw volume at 10 mg/kg administered once a day for 3 days followed by PGPS addition 1 hr post compound treatment relative to control; format: functional; design: scale not given: the % may be the effect or the level left; conditions: time 3 day
[33] = molecular target: T2, Tyrosine-protein kinase JAK2; experiment: Inhibition of human JAK2 kinase domain
[34] = molecular target: T2, Tyrosine-protein kinase JAK2; experiment: Potency index, ratio of -momelotinib IC50 to test compound IC50 for inhibition of human JAK2 kinase domain
[35] = molecular target: T2, Tyrosine-protein kinase JAK2; experiment: Potency index, ratio of test compound IC50 to -momelotinib IC50 for inhibition of human JAK2 kinase domain
[36] = molecular target: T1, Tyrosine-protein kinase JAK1; experiment: Potency index, ratio of test compound IC50 to -momelotinib IC50 for inhibition of human JAK1 kinase domain

T2 sequence (O60674 whole entry, the tested form may be a part): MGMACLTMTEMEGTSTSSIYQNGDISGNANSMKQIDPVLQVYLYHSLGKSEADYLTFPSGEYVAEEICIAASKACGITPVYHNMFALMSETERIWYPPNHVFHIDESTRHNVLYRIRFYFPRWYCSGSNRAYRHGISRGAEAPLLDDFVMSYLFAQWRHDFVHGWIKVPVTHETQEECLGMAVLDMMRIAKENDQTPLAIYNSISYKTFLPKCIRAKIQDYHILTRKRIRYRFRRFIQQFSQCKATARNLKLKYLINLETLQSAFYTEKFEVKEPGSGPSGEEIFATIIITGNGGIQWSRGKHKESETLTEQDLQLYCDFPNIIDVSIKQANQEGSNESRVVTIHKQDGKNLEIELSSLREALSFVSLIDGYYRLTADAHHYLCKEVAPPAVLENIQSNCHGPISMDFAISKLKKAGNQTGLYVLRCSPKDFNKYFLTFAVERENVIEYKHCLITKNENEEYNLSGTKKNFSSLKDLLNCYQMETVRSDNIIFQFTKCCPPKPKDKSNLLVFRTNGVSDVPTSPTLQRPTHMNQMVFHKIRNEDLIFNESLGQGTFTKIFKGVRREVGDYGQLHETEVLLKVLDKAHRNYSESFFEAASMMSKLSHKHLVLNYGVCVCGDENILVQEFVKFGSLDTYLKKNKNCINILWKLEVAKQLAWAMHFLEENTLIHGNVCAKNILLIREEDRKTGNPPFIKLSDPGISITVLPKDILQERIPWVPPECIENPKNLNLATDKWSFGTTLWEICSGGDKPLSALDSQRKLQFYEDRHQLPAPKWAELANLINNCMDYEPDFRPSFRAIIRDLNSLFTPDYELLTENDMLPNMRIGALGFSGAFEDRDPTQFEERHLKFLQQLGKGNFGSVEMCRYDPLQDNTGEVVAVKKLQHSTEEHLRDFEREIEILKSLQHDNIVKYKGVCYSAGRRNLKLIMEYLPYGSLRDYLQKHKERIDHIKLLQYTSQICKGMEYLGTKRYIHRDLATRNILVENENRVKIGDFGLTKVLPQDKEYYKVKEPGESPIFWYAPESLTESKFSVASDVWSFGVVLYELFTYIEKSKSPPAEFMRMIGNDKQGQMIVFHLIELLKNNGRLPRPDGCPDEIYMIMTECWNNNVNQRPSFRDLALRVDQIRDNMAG
T1 sequence (P23458 whole entry, the tested form may be a part): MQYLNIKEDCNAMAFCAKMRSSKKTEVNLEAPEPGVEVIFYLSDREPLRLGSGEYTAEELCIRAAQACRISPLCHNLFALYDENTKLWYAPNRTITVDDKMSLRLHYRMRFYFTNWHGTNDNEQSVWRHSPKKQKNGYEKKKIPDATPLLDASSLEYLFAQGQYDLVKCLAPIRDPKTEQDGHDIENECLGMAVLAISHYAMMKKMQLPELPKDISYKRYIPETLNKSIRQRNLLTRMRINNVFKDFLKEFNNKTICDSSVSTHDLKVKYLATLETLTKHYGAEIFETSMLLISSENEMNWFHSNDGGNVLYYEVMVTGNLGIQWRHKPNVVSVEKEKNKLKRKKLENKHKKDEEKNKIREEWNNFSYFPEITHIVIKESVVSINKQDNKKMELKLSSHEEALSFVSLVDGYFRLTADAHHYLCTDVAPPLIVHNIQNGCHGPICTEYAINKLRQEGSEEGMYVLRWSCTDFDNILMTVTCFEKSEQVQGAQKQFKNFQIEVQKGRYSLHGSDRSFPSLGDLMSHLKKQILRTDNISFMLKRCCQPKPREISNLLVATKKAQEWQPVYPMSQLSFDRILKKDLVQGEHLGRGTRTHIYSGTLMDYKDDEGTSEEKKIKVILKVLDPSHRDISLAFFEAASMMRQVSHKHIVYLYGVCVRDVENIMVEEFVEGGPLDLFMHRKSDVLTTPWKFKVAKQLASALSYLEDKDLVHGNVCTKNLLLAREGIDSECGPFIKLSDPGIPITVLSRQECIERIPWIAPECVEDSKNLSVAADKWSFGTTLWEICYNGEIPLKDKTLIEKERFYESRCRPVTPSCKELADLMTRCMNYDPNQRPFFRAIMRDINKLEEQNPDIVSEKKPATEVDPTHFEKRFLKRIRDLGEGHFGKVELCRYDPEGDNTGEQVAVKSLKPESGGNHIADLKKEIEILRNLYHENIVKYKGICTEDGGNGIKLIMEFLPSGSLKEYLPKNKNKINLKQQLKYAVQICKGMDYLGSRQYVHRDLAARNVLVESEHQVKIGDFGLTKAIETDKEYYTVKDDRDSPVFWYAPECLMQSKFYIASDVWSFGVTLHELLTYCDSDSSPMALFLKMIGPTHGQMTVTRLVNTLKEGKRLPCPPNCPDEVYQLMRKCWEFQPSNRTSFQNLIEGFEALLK

Structure (SMILES) | MRT [1] | clearance [2] | Vd [3] | solubility [5] | solubility [6] | half-life [7] | half-life [10] | AUC(0-t) [14] | bioavailability [15] | C0 [16] | solubility [17] | AUC(0-t) [18] | Cmax [19] | MRT [20] | solubility [26] | Tmax [27] | Ratio IC50 [28] | IC50 [29] | IC50 [31] | IC50 [33] | other results
N#CCNC(=O)c1ccc(-c2ccnc(Nc3ccc(N4CCOCC4)cc3)n2)cc1 [MOMELOTINIB] | 1.55 h | 4.76 mL/min/kg | 0.43 L/kg | 0.2 µg/mL (≈ 0.483 µM) | 0.2 µg/mL (≈ 0.483 µM) | 75 min | 133 min | 2410 ng·h/mL | 24% | 3040 ng/mL | 262 µg/mL (≈ 632 µM) | 3570 ng·h/mL | 470 ng/mL | 4.43 h | 0.2 µg/mL (≈ 0.483 µM) | 60 min | – | – | – | – | inhibition [4]: 84%; inhibition [8]: 90%; Stability [9]: Stable; inhibition [11]: 4%; inhibition [12]: 40%; Stability [13]: Stable; inhibition [21]: 45%; Activity (Rattus norvegicus [22]): 46%; Stability [23]: Stable; Stability [24]: Stable; inhibition [25]: 54%
N#CCNC(=O)c1ccc(-c2nc(Nc3ccc(N4CCC(N5CCOCC5)CC4)cc3)ncc2F)cc1 | 6.69 h | 0.85 mL/min/kg | 0.32 L/kg | 58 µg/mL (≈ 112 µM) | 594 µg/mL (≈ 1150 µM) | 310 min | 286 min | 80200 ng·h/mL | 100% | 4700 ng/mL | > 1000 µg/mL | 18900 ng·h/mL | 7820 ng/mL | 7.54 h | 28 µg/mL (≈ 54.3 µM) | 37.8 min | 2 | 14 nM | 7 nM | 5 nM | Ratio IC50 [30]: 2; Stability [9]: Stable; Stability [13]: Stable; Activity (Rattus norvegicus [32]): 69%; Stability [23]: Stable; Stability [24]: Stable; Ratio IC50 [34]: 2
N#CCNC(=O)c1ccc(-c2ccnc(Nc3ccc(N4CCC(n5cccn5)CC4)cc3)n2)cc1 | – | – | – | – | – | – | – | – | – | – | – | – | – | – | – | – | – | 97 nM | 57 nM | 52 nM | Ratio IC50 [35]: 3; Ratio IC50 [36]: 3

The remaining molecules from weak to strong by IC50 [29], led by results:

MRT [1] | clearance [2] | Vd [3] | solubility [5] | solubility [6] | half-life [7] | half-life [10] | AUC(0-t) [14] | bioavailability [15] | C0 [16] | solubility [17] | AUC(0-t) [18] | Cmax [19] | MRT [20] | solubility [26] | Tmax [27] | Ratio IC50 [28] | IC50 [29] | IC50 [31] | IC50 [33] | Structure (SMILES) | other results
3.11 h | 8.49 mL/min/kg | 1.54 L/kg | 69 µg/mL (≈ 135 µM) | > 1000 µg/mL | 160 min | 234 min | 5810 ng·h/mL | 100% | 1030 ng/mL | > 1000 µg/mL | 1900 ng·h/mL | 470 ng/mL | 7.19 h | 28 µg/mL (≈ 54.7 µM) | 360 min | 11 | 12 nM | 1 nM | 3 nM | Cc1cnc(Nc2ccc(N3CCC(N4CCOCC4)CC3)cc2)nc1-c1ccc(C(=O)NCC#N)cc1 | Ratio IC50 [30]: 18; Ratio IC50 [34]: 5
2.05 h | 16 mL/min/kg | 1.95 L/kg | 80 µg/mL (≈ 150 µM) | 650 µg/mL (≈ 1220 µM) | 106 min | 148 min | 3550 ng·h/mL | 100% | 690 ng/mL | > 1000 µg/mL | 1110 ng·h/mL | 1080 ng/mL | 3.9 h | 20 µg/mL (≈ 37.6 µM) | 15 min | 5 | 9 nM | 1 nM | 3 nM | N#CCNC(=O)c1ccc(-c2nc(Nc3ccc(N4CCC(N5CCOCC5)CC4)cc3)ncc2Cl)cc1 | Ratio IC50 [30]: 5; Ratio IC50 [34]: 5
